Test results taken from patent US8802597B2, “Herbicidal pyrimidines” (E I du Pont de Nemours and Company, priority 2003, dated 2014).

Key:
Type in all cases: in vivo
[1] = tested on: Surinam grass (Brachiaria decumbens); experiment: Test B pre/postemergence
How it was run: (§1)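 Visual injury scored 0 (no effect) to 100 (complete control) versus untreated controls after 13 to 15 days in greenhouse. Treatments were pre- or postemergence sprays of surfactant-containing solvent formulations; postemergence plants at 1- to 4-leaf stage, 2 to 18 cm.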

[2] = tested on: barnyardgrass (Echinochloa crus-galli); experiment: Test B pre/postemergence
How it was run: as §1

[3] = tested on: cocklebur (Xanthium strumarium); experiment: Test B pre/postemergence
How it was run: as §1

corn (Zea mays) = experiment: Test B pre/postemergence
How it was run: as §1

[4] = tested on: crabgrass (Digitaria sanguinalis); experiment: Test B pre/postemergence
How it was run: as §1

[5] = tested on: giant foxtail (Setaria faberii); experiment: Test B pre/postemergence
How it was run: as §1

[6] = tested on: lambsquarters (Chenopodium album); experiment: Test B pre/postemergence
How it was run: as §1

[7] = tested on: morningglory (Ipomoea coccinea); experiment: Test B pre/postemergence
How it was run: as §1

[8] = tested on: pigweed (Amaranthus retroflexus); experiment: Test B pre/postemergence
How it was run: as §1

[9] = tested on: velvetleaf (Abutilon theophrasti); experiment: Test B pre/postemergence
How it was run: as §1

[10] = tested on: wheat (Triticum aestivum); experiment: Test B pre/postemergence
How it was run: as §1

[11] = tested on: blackgrass (Alopecurus myosuroides); experiment: Test B postemergence
How it was run: as §1

wild oat (Avena fatua) = experiment: Test B postemergence
How it was run: as §1

[12] = tested on: barnyardgrass (Echinochloa crus-galli); experiment: Test B flooded paddy test; settings: Flood, 1000 g ai/ha; scale 0 (no effect) to 100 (complete control)
How it was run: (§2)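 Plants were grown to the 2-leaf stage before treatment, then kept in a greenhouse for 13 to 15 days. Injury was rated visually against untreated controls on a 0 to 100 scale, where 0 is no effect and 100 is complete control.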

[13] = tested on: duck salad (Heteranthera limosa); experiment: Test B flooded paddy test; settings: Flood, 1000 g ai/ha; scale 0 to 100
How it was run: as §2

rice (Oryza sativa) = experiment: Test B flooded paddy test; settings: Flood, 1000 g ai/ha; scale 0 to 100
How it was run: as §2

[14] = tested on: umbrella sedge (Cyperus difformis); experiment: Test B flooded paddy test; settings: Flood, 1000 g ai/ha; scale 0 to 100
How it was run: as §2

[15] = Postemergence, 125 g ai/ha, scale 0 to 100 (0 no effect, 100 complete control)
[16] = Postemergence, 500 g ai/ha, scale 0 to 100
[17] = Preemergence, 125 g ai/ha, scale 0 to 100 (0 no effect, 100 complete control)
[18] = Preemergence, 500 g ai/ha, scale 0 to 100 (0 no effect, 100 complete control)
[19] = 125 g ai/ha, scale 0 to 100 (0 no effect, 100 complete control)

CCOC(=O)C(Cl)(Cl)c1nc(C2CC2)nc(N)c1Br [Compound 34]
20: Foxtail, Giant plant response rating [5, 15] | Foxtail, Giant plant response rating [5, 18] | Plant response rating, Morningglory [7, 17]
70: Crabgrass plant response rating [4, 18] | Lambsquarters plant response rating [6, 15] | Plant response rating, Morningglory [7, 16] | Morningglory plant response rating [7, 18] | Plant response rating, Blackgrass ([11]; 500 g ai/ha, scale 0 to 100)
80: Cocklebur plant response rating [3, 15] | Plant response rating, Cocklebur [3, 16] | Lambsquarters plant response rating [6, 18] | Plant response rating, Pigweed [8, 16] | Pigweed plant response rating [8, 18]
0: Barnyardgrass plant response rating [2, 15] | Plant response rating, Barnyardgrass [2, 17] | Barnyardgrass plant response rating [2, 18] | Corn plant response rating (corn (Zea mays); [15]) | Plant response rating, Corn (corn (Zea mays); [16]) | Plant response rating, Corn (corn (Zea mays); [17]) | Corn plant response rating (corn (Zea mays); [18]) | Crabgrass plant response rating [4, 15] | Plant response rating, Crabgrass [4, 17] | Plant response rating, Foxtail, Giant [5, 17] | Plant response rating, Wheat [10, 17] | Plant response rating, Barnyardgrass [12] | Plant response rating, Ducksalad [13] | Plant response rating, Rice (rice (Oryza sativa)) | Plant response rating, Sedge, Umbrella [14]
50: Plant response rating, Surinam Grass [1, 16] | Surinam Grass plant response rating [1, 18] | Plant response rating, Foxtail, Giant [5, 16] | Plant response rating, Lambsquarters [6, 17] | Pigweed plant response rating [8, 15]
90: Plant response rating, Lambsquarters [6, 16]
30: Plant response rating, Cocklebur [3, 17] | Plant response rating, Crabgrass [4, 16] | Velvetleaf plant response rating [9, 15] | Plant response rating, Velvetleaf [9, 17] | Wheat plant response rating [10, 15] | Oat, Wild plant response rating (wild oat (Avena fatua); [19])
10: Surinam Grass plant response rating [1, 15] | Plant response rating, Surinam Grass [1, 17] | Plant response rating, Wheat [10, 18]
40: Plant response rating, Pigweed [8, 17] | Plant response rating, Wheat [10, 16] | Plant response rating, Oat, Wild (wild oat (Avena fatua); 500 g ai/ha, scale 0 to 100)
60: Plant response rating, Barnyardgrass [2, 16] | Cocklebur plant response rating [3, 18] | Morningglory plant response rating [7, 15] | Plant response rating, Velvetleaf [9, 16] | Velvetleaf plant response rating [9, 18] | Blackgrass plant response rating [11, 19]
